Source: PMC9203742 (Nature Communications, 2022)
Values joined by “and” are separate entries in the source; they are usually repeats but may differ in a detail not shown here. Equal values may be shown once.

Legend:
[1] = test system: HEK293 cells, control vector; experiment: Inositol-1-phosphate (IP1) accumulation assay, HEK293 cells transfected with control vector; type: cell-based; conditions: 100 µM Glu; Vec; listed as Glu
[2] = test system: HEK293 cells, vector control; experiment: Fura-2 Ca2+ imaging in HEK293 cells transfected with control vector (Vec); type: cell-based
[3] = test system: mGlu1 construct not given; experiment: Fura-2 Ca2+ imaging in HEK293 cells, source data Suppl Fig1, left group (c0-c8); construct not given; type: cell-based, rat; set-up: unit not given here; conditions: single-cell values, cells #15-#20, left group of third block
From the text: (§1) Supplement 41467_2022_30828_MOESM6_ESM.zip/Ojima et al_source data_Suppl Fig.xlsx, sheet "Suppl Fig1" | column: Glu; NiCl2; CuCl2; ZnCl2; CdCl2; Na2PdCl2; Pd(bpy)

[4] = test system: mGlu1 construct not given; experiment: Fura-2 Ca2+ imaging in HEK293 cells, source data Suppl Fig1, middle group (c9-c17); construct not given; type: cell-based, rat; set-up: unit not given here; conditions: single-cell values, cells #15-#20, middle group of third block
From the text: as §1

[5] = test system: mGlu1 construct not given; experiment: Fura-2 Ca2+ imaging in HEK293 cells, source data Suppl Fig1, right group (c18-c26); construct not given; type: cell-based, rat; set-up: unit not given here; conditions: single-cell values, cells #15-#20, right group of third block
From the text: as §1

[6] = molecular target: T1, mGlu1(N264H) mutant (Rattus norvegicus, UniProt P23385, N264H); experiment: Fura-2 Ca2+ imaging in HEK293 cells expressing mGlu1(N264H); type: cell-based; conditions: 10 µM LY367385, 1 µM FITM, 10 µM YM254890 or 1 µM U73122
T1 construct: expressed in transfected cells; host or cells: HEK293

[7] = molecular target: T2, cell-surface mGlu1 in cerebellar slices of mGlu1^+/+ mice (Mus musculus, UniProt P97772); experiment: Confocal live imaging of cell-surface mGlu1 with FITM-Cy3 in acute cerebellar slices, mGlu1^+/+; type: binding
T2 construct: from tissue; host or cells: acute cerebellar slices of mGlu1+/+ (C57BL/6J) mice
Procedure: (§2) Sagittal cerebellar slices were cut with a microslicer (Linear slicer Pro7; DOSAKA EM) in cutting solution buffer and then incubated in ACSF gassed with 5% CO2 and 95% O2 at room temperature.
(§3) The cerebellar slices prepared from mGlu1^+/+ or mGlu1^CBC/CBC mice, were incubated with 10 nM FITM-Cy3 and 10 µg/mL Hoechst33342 for 30 min at room temperature in a humidified atmosphere of 5% CO2 and 95% O2. As a negative control, the cerebellar slices were incubated with 10 nM FITM-Cy3, 10 µg/mL Hoechst33342, and 500 nM FITM. Then, the slices were subjected to confocal live imaging using a confocal microscope (LSM900, Carl Zeiss). The fluorescence intensity of Cy3 at the molecular layer were quantified by ZEN blue software (Carl Zeiss).

[8] = molecular target: T3, cell-surface mGlu1 in cerebellar slices of mGlu1^CBC/CBC mice (Mus musculus, UniProt P97772, N264H); experiment: Confocal live imaging of cell-surface mGlu1 with FITM-Cy3 in acute cerebellar slices, mGlu1^CBC/CBC; type: binding
T3 construct: from tissue; host or cells: acute cerebellar slices of homozygous mGlu1(N264H) knock-in (mGlu1CBC/CBC) mice
Procedure: as §2, §3

[9] = test system: primary cortical neurons; experiment: Fura-2 Ca2+ imaging (abnormal Ca2+ response) in cultured cortical neurons; conditions: co-treated 30 µM LY367385, 1 µM FITM or 10 µM U73122
[10] = molecular target: T4, WT mGlu1 (Rattus norvegicus, UniProt P23385); type: cell-based
T4 construct: expressed in transfected cells; host or cells: HEK293

[11] = molecular target: T5, mGlu1 P58H/N264H mutant (Rattus norvegicus, UniProt P23385, N264H/P58H); experiment: Fura-2 Ca2+ imaging in HEK293 cells expressing mGlu1 P58H/N264H; type: cell-based
T5 construct: expressed in transfected cells; host or cells: HEK293

[12] = molecular target: T6, mGlu1 A59H/N264H mutant (Rattus norvegicus, UniProt P23385, A59H/N264H); experiment: Fura-2 Ca2+ imaging in HEK293 cells expressing mGlu1 A59H/N264H; type: cell-based
T6 construct: expressed in transfected cells; host or cells: HEK293

[13] = molecular target: T7, mGlu1 K61H/N264H mutant (Rattus norvegicus, UniProt P23385, K61H/N264H); experiment: Fura-2 Ca2+ imaging in HEK293 cells expressing mGlu1 K61H/N264H; type: cell-based
T7 construct: expressed in transfected cells; host or cells: HEK293

[14] = molecular target: T8, mGlu1 P57H/N264H mutant (Rattus norvegicus, UniProt P23385, N264H/P57H); experiment: Fura-2 Ca2+ imaging in HEK293 cells expressing mGlu1 P57H/N264H; type: cell-based
T8 construct: expressed in transfected cells; host or cells: HEK293

[15] = molecular target: T9, mGlu1 E60H/N264H mutant (Rattus norvegicus, UniProt P23385, E60H/N264H); experiment: Fura-2 Ca2+ imaging in HEK293 cells expressing mGlu1 E60H/N264H; type: cell-based
T9 construct: expressed in transfected cells; host or cells: HEK293

[16] = test system: HEK293 cells, vector control; experiment: Fura-2 Ca2+ imaging in HEK293 cells transfected with control vector (Vec); type: cell-based; conditions: Fig.1e
From the text: Supplement 41467_2022_30828_MOESM6_ESM.zip/Ojima et al_source data_Main Figure.xlsx, sheet "Fig.1e" | column: Vec

[17] = molecular target: T10, mGlu1 A59H/A265H mutant (Rattus norvegicus, UniProt P23385, A265H/A59H); experiment: Fura-2 Ca2+ imaging in HEK293 cells expressing mGlu1 A59H/A265H; type: cell-based; conditions: single-cell values
T10 construct: expressed in transfected cells; host or cells: HEK293

[18] = molecular target: T10, mGlu1 A59H/A265H mutant; experiment: as above; type: cell-based; conditions: Fig.1e
[19] = molecular target: T11, mGlu1 A59H/G266H mutant (Rattus norvegicus, UniProt P23385, A59H/G266H); experiment: Fura-2 Ca2+ imaging in HEK293 cells expressing mGlu1 A59H/G266H; type: cell-based; conditions: single-cell values
T11 construct: expressed in transfected cells; host or cells: HEK293

[20] = molecular target: T11, mGlu1 A59H/G266H mutant; experiment: as above; type: cell-based; conditions: Fig.1e
[21] = 10 nM FITM-Cy3 with excess (500 nM) FITM
[22] = mGlu1+/+, relative to Ave of mGlu1+/+ FITM (-) = 1
[23] = mGlu1CBC/CBC, relative to Ave of mGlu1+/+ FITM (-) = 1

T9 sequence (P23385 19-1199 E60H/N264H): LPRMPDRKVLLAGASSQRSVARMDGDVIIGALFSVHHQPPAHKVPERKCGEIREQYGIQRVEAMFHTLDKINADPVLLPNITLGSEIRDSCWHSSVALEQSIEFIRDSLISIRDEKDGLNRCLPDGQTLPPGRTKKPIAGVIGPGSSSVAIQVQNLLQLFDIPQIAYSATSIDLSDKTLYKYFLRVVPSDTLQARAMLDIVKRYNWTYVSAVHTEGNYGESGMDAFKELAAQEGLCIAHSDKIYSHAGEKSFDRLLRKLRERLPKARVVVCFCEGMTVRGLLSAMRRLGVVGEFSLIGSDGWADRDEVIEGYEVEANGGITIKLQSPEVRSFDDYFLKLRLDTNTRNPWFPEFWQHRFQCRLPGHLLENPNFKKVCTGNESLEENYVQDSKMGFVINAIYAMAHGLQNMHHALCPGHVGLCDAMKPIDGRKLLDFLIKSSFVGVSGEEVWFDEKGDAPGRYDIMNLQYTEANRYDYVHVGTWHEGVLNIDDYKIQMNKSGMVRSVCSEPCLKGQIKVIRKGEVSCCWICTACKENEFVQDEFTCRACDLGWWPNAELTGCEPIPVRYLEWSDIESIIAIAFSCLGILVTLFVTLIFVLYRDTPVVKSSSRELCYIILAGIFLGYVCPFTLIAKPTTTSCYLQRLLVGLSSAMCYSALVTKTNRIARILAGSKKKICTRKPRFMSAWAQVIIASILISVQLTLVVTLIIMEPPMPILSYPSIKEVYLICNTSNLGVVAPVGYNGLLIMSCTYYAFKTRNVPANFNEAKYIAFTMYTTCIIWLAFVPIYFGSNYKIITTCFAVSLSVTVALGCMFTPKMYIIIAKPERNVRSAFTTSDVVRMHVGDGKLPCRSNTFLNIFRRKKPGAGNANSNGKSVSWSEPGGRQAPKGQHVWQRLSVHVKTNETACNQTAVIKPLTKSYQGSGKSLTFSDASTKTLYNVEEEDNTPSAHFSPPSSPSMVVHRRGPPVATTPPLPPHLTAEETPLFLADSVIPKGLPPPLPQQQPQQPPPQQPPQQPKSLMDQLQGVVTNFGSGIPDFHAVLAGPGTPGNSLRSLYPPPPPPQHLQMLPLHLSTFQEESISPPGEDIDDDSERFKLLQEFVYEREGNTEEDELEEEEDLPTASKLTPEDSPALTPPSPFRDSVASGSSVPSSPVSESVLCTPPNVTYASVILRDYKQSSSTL
T4 sequence (P23385 19-1199): as the sequence (P23385 19-1199 E60H/N264H) above, with H42E, H246N counted along it
T10 sequence (P23385 19-1199 A59H/A265H): as the sequence (P23385 19-1199 E60H/N264H) above, with A41H, H42E, H246N, A247H counted along it
T2 sequence (P97772 19-1199 limits assumed): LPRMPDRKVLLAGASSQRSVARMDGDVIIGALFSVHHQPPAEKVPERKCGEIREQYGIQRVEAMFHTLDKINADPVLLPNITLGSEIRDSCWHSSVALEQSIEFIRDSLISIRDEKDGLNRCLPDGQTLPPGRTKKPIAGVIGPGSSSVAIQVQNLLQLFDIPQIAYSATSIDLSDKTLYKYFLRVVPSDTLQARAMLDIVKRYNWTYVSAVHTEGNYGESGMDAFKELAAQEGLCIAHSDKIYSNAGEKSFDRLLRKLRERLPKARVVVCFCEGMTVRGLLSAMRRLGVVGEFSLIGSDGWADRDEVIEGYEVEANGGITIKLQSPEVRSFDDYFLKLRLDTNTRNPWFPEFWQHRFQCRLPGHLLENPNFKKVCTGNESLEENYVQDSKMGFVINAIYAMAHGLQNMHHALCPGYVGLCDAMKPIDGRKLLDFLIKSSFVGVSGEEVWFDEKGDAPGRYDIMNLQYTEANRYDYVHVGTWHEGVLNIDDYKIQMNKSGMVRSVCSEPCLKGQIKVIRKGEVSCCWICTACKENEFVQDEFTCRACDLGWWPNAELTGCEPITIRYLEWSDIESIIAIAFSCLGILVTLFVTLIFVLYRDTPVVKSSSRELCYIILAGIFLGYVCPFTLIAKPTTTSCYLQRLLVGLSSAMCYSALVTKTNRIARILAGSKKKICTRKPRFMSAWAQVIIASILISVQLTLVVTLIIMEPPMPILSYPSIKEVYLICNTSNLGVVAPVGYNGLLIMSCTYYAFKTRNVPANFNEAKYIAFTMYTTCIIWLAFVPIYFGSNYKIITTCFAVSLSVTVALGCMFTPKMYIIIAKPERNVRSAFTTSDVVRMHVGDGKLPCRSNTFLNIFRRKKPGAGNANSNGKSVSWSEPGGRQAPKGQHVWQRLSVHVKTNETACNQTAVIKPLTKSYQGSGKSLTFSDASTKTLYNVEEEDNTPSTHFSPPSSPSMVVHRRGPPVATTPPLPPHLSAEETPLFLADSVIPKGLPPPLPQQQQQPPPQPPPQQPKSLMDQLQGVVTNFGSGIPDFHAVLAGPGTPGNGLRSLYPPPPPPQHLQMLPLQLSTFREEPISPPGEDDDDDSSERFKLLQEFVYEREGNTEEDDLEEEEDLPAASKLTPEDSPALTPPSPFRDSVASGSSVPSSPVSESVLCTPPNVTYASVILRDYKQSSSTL
T6 sequence (P23385 19-1199 A59H/N264H): as the sequence (P23385 19-1199 E60H/N264H) above, with A41H, H42E counted along it
T3 sequence (P97772 19-1199 N264H limits assumed): as the sequence (P97772 19-1199 limits assumed) above, with N246H counted along it
T11 sequence (P23385 19-1199 A59H/G266H): as the sequence (P23385 19-1199 E60H/N264H) above, with A41H, H42E, H246N, G248H counted along it
T8 sequence (P23385 19-1199 P57H/N264H): as the sequence (P23385 19-1199 E60H/N264H) above, with P39H, H42E counted along it
T7 sequence (P23385 19-1199 K61H/N264H): as the sequence (P23385 19-1199 E60H/N264H) above, with H42E, K43H counted along it
T5 sequence (P23385 19-1199 P58H/N264H): as the sequence (P23385 19-1199 E60H/N264H) above, with P40H, H42E counted along it
T1 sequence (P23385 19-1199 N264H): as the sequence (P23385 19-1199 E60H/N264H) above, with H42E counted along it

N[C@@H](CCC(=O)O)C(=O)O [glutamate, reference compound]
IP1 accumulation, single experiments [1]: 1.025 and 1.123 and 0.98
Ca2+ response of individual cells (source data Suppl Fig1), Vec ([2]; single-cell values #1-#20, listed as Glu): 0.01056 and 0.06409 and 0.01964 and 0.006185 and 0.01272 and 0.02269 and 0.02795 and 0.001992 and 0.03471 and 0.04057 and 0.0119 and 0.01116 and 0.01651 and 0.008954 and 0.06266 and 0.02138 and 0.004577 and 0.01188 and 0.01429 and 0.0107
Ca2+ response of individual cells (source data, sheet Suppl Fig1) ([3]; listed as Glu): 0.1813 and 0.3548 and 0.1848 and 0.1996 and 0.1287 and 0.1577
Ca2+ response of individual cells (source data, sheet Suppl Fig1) ([4]; listed as Glu): 0.1431 and 0.7212 and 0.03709 and 0.1609 and 0.01695 and 0.7758
Ca2+ response of individual cells (source data, sheet Suppl Fig1) ([5]; listed as Glu): 0.5202 and 0.5869 and 0.3843 and 0.3042 and 0.505 and 0.02158

CC(C)Nc1cc(-c2csc(N(C)C(=O)c3ccc(F)cc3)n2)ncn1 [FITM]
Effect of pre-treated inhibitor on 10 µM Pd(bpy)-induced Ca2+ responses [6]: inhibited
Competition of FITM-Cy3 fluorescence in the molecular layer [7, 21]: disappearance of fluorescence
FITM-Cy3 signal with FITM (+), Ave (Fig.5d) [7, 22]: 0.2072
FITM-Cy3 signal with FITM (+), individual values #1-#5 (Fig.5d) [7, 22]: 0.08371 and 0.2036 and 0.1822 and 0.2639 and 0.3024
Competition of FITM-Cy3 fluorescence in the molecular layer [8, 21]: disappearance of fluorescence
FITM-Cy3 signal with FITM (+), Ave (Fig.5d) [8, 23]: 0.1786
FITM-Cy3 signal with FITM (+), individual values #1-#5 (Fig.5d) [8, 23]: 0.1218 and 0.08484 and 0.2076 and 0.2159 and 0.2628
Effect of inhibitor on 30 µM Pd(bpy)-induced [Ca2+]i elevation [9]: suppressed by neither

[Cl][Cd][Cl] [CdCl2]
Ca2+ response (delta ratio), WT ([10]; Fig.1e): 0.005362
Ca2+ response of individual cells (source data Suppl Fig1), WT ([10]; single-cell values #1-#20, WT): 0.0129 and 0.04075 and 0.009069 and 0.006385 and -0.009131 and -0.006215 and 0.2594 and 0.005608 and -0.007808 and -0.007346 and 0.0007769 and -0.1317 and -0.001 and -0.06408 and -0.004269 and 0.01558 and -0.01997 and 0.01184 and 0.001662 and -0.005277
Ca2+ response (delta ratio), P58H/N264H ([11]; Fig.1e): -0.005715
Ca2+ response of individual cells (source data Suppl Fig1), P58H/N264H ([11]; single-cell values #1-#20, P58H/N264H): 0.0003 and -0.006238 and 0.002354 and -0.001808 and -0.01828 and -0.02019 and -0.005077 and -0.009385 and -0.005592 and -0.02068 and -0.009223 and 0.09017 and -0.003262 and -0.06371 and -0.003885 and -0.002246 and -0.002192 and 0.0005231 and -0.03079
Ca2+ response (delta ratio), A59H/N264H ([12]; Fig.1e): 0.02484
Ca2+ response of individual cells (source data Suppl Fig1), A59H/N264H ([12]; single-cell values #1-#20, A59H/N264H): 0.2588 and -0.01875 and -0.0009538 and 0.004669 and -0.003354 and -0.0081 and -0.03695 and -0.009438 and -0.004808 and -0.01072 and -0.01152 and -0.03409 and 0.4867 and -0.01683 and -0.02968 and -0.006508 and -0.0288 and -0.01271 and -0.01325 and -0.006908
Ca2+ response (delta ratio), K61H/N264H ([13]; Fig.1e): 0.01695
Ca2+ response of individual cells (source data Suppl Fig1), K61H/N264H ([13]; single-cell values, K61H/N264H): 0.003946 and -0.03622 and -0.01614 and -0.01244 and -0.01964 and -0.05083 and -0.008715 and -0.008331 and -0.02813 and 0.002531 and -0.03307 and -0.01172 and 0.5817 and -0.01188
Ca2+ response (delta ratio), P57H/N264H ([14]; Fig.1e): 0.03091
Ca2+ response of individual cells (source data Suppl Fig1), P57H/N264H ([14]; single-cell values #1-#20, P57H/N264H): -0.01735 and -0.005323 and -0.01104 and -0.01126 and -0.0097 and -0.003008 and -0.01663 and -0.0067 and -0.01865 and 0.6823 and 0.01155 and -0.0096 and 0.03494 and -0.09688 and -0.01634 and 0.024 and 0.009592 and -0.004469 and 0.09844 and -0.01566
Ca2+ response (delta ratio), E60H/N264H ([15]; Fig.1e): -0.01186
Ca2+ response of individual cells (source data Suppl Fig1), E60H/N264H ([15]; single-cell values #1-#20, E60H/N264H): -0.009869 and -0.0139 and -0.008638 and -0.01472 and -0.009062 and -0.006669 and -0.004677 and -0.01493 and -0.004954 and 0.001138 and -0.005708 and -0.002215 and 0.01407 and 0.02235 and -0.01174 and -0.009823 and -0.008654 and -0.007631 and -0.02142 and -0.1201
Ca2+ response of individual cells (source data Suppl Fig1), Vec ([2]; single-cell values #1-#20): -0.01042 and -0.01834 and -0.01502 and -0.05052 and -0.04072 and -0.03065 and -0.02875 and -0.03001 and -0.006638 and -0.04038 and -0.04515 and -0.04559 and -0.05998 and -0.01618 and -0.0239 and -0.03979 and -0.02847 and -0.03687 and -0.04005 and -0.03582
Ca2+ response of individual cells (source data, sheet Suppl Fig1) [3]: -0.005954 and 0.01795 and 0.005315 and -0.02397 and -0.001754 and -0.003654
Ca2+ response (delta ratio), Vec [16]: -0.03216
Ca2+ response of individual cells (source data Suppl Fig1), A59H/A265H [17]: 0.002869 and 0.004277 and -0.0003846 and 0.01228 and 0.01648 and -0.01175 and -0.03786 and 0.01586 and 0.002777 and 0.3308 and 0.2114 and -0.005654 and -0.02447 and 0.0205
Ca2+ response of individual cells (source data, sheet Suppl Fig1) [4]: 0.01055 and 0.01355 and -0.009131 and -0.01706 and 0.009777 and -0.01645
Ca2+ response (delta ratio), A59H/A265H [18]: 0.02642
Ca2+ response of individual cells (source data Suppl Fig1), A59H/G266H [19]: -0.01723 and 0.01558 and 0.01066 and 0.005608 and 0.01182 and 0.0279 and -0.1123 and -0.0058 and -0.01721 and 0.02262 and 0.01814 and -0.006169 and -0.01936 and 0.04175
Ca2+ response of individual cells (source data, sheet Suppl Fig1) [5]: 0.03353 and 0.009331 and 0.006908 and 0.01689 and -0.009408 and 0.005315
Ca2+ response (delta ratio), A59H/G266H [20]: 0.001928
